# Laboratory results from patent publication US20150051296A1, “USE OF FATTY ACID TO REDUCE SKIN IRRITATION ASSOCIATED WITH RETINOID THERAPY” (Access Business Group Internaional LLC, priority 2013, published 2015).
# Experiments:
# [1] = test system: retinoic acid response element (RARE) construct; assay: RARE reporter assay in stably transfected human kidney cells; type: cell-based; settings: oleic acid about 0, 25, 50, 100, 200 μM, FIG. 3
# Experimental: Human kidney cells were stably transfected with a retinoic acid response element (RARE) construct. The transfected cells were exposed to increasing amounts of retinoic acid (from about 0.005 μM to about 10 μM) in the presence of increasing amounts of oleic acid (about 0 μM, about 25 μM, about 50 μM, about 100 μM, and about 200 μM), and the response was measured in relative light units (RLUs).
# [2] = test system: peroxisome proliferator activated receptor (PPAR); assay: PPAR luciferase reporter assay in stably transfected Chinese hamster ovary cells; type: cell-based; settings: about 0 to about 100 μg/mL, FIG. 5
# Experimental: Chinese hamster ovary cells were stably transfected with peroxisome proliferator activated receptor (PPAR) construct and luciferase reporter vector. […] The response was measured in relative light units (RLUs).
compound,measurement,setting,value
CCCCCCCC/C=C\CCCCCCCC(=O)O [oleic acid],effect of the fatty acid on retinoic acid activation of the retinoic acid receptor,[1],did not affect retinoic acid activation of the retinoic acid receptor
same,response (RLUs) of PPAR-transfected cells,[2],responded in a dose dependent manner
